Laboratory results reported in patent US8796268B2, “Heteroaryls and uses thereof” (Millennium Pharmaceuticals, Inc., priority 2010, dated 2014).
Read-outs that look alike come from different tables or passages of the source.

Assays:
Assay type in all cases: biochemical
[1] = target: T1, Human PI3K alpha (Homo sapiens, UniProt P42336); experiment: Human PI3K alpha enzyme assay (HTRF)
T1 construct: His (N); host or cells: SF9 insect cells (baculovirus)

[2] = target: T2, Human PI3K beta (Homo sapiens, UniProt P42338); experiment: Human PI3K beta enzyme assay (HTRF)
T2 construct: His (N); host or cells: SF9 insect cells (baculovirus)
How it was run: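 Compounds were mixed with 25 uM ATP, then with 3.5 uM di-C8 PI(4,5)P2 and His-tagged PI3K isoform (β 5.25 nM, δ 0.75 nM, γ 5 nM) at pH 7.00. After 30 min at room temperature, EDTA stopped the reaction and PIP3 was measured by HTRF over 1 h.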

[3] = target: T3, Human PI3K delta (Homo sapiens, UniProt O00329); experiment: Human PI3K delta enzyme assay (HTRF)
T3 construct: His (N); host or cells: SF9 insect cells (baculovirus)
Source text: (§1) The catalytic subunits of PI3Ks are cloned into either pDEST8(p110 alpha) or pDEST10(p110beta, p110delta, and p110gamma) as N-terminal His tagged fusion proteins using the Gateway system (Invitrogen, catalog#11804-010 for pDEST8 and 11806-015 for pDEST10). The sequences are verified before recombinant protein expression using the Baculovirus Expression System with Gateway® Technology. The accession numbers for the subunits are as follows: • p110 alpha (GB:U79143) • p110beta (GB: S67334) • p110delta (GB: U86453) • p110gamma (GB: X83368) • The regulatory subunits of PI3Ks are cloned into pDEST8 as un-tagged protein using the Gateway system (Catalog#11804-010). The sequences are verified before recombinant protein expression using the Baculovirus Expression System with Gateway® Technology. The accession numbers for the subunits are as following: • p85 alpha (GB: BC030815) • p101(GB: AB028925) • VPS34 (accession number GB:BC033004) is cloned into pDEST20—Thombin as N-terminal GST tagged fusion proteins using the Gateway system (Invitrogen, catalog#11804-013). The sequences are verified before recombinant protein expression using the Baculovirus Expression System with Gateway® Technology.
(§2) For expression of the p110 complexes, the p85 (MOI of 4) is co-infected with p110 alpha, beta, and delta respectively (1MOI) in SF9 cells and harvested at 60 hours post co-infection. P110 gamma was infected at 1 MOI and harvested at 60 hours post infection.
(§3) For purification, PI3Ks are purified by Ni-NTA Agarose (Qiagen #30250) followed by Mono Q 10/100 GL (Ge Healthcare #17-5167-01). VPS34 is purified by Glutathione Sepharose 4 Fast Flow (GE Healthcare #17-5132-03) followed by HiTrap Q (GE Healthcare #17-1153-01).
(§4) 0.5 uL compounds in DMSO are added to wells of a 384 well microtitre plate (Corning 3575). At room temperature: 10 ul PI3K reaction buffer (50 mM Hepes, 5 mM DTT, 150 mM NaCl, 10 mM beta-glycerophosphate, 10 mM MgCl2, 0.25 mM sodium cholate and 0.001% CHAPS, pH 7.00) containing ATP (25 uM, Promega) is added followed immediately by 10 ul PI3K reaction buffer containing di-C8 P1(4,5)P2 (3.5 uM, CellSignals) and PI3Kalpha (0.4875 nM, Millennium Protein Sciences Group) and the mixture is incubated with shaking at room temperature for 30 minutes. Then 5 ul PI3K stop mix (50 mM Hepes, 5 mM DTT, 150 mM NaCl, 0.01% Tween-20, 15 mM EDTA and 25 nM biotin-PI(3,4,5)P3 (Echelon) is added to quench the reaction followed immediately by addition of 5 ul HTRF detection mix (50 mM Hepes, 5 mM DTT, 150 mM NaCl, 0.01% Tween-20, 40 mM KF, 1.0 nM GST:GRP-1 PH domain (Millennium Protein Sciences Group), 15 nM Streptavidin-XL (CisBio) and 0.375 nM anti-GST Eu++ antibody (CisBio) at pH 7.00). The plates are then incubated for 1 hour at room temperature with shaking and then read on a BMG PheraStar Plus reader.
(§5) 2) Human PI3K beta, delta and gamma isoforms are tested using the procedure described for PI3K alpha above but with the following changes: PI3K beta (5.25 nM), PI3K delta (0.75 nM) and PI3K gamma (5 nM). All isoforms supplied by Millennium Protein Science Group.
(§6) For the assay methods described above, test compound percent inhibition, at various concentrations, is calculated relative to control (DMSO and EDTA) treated samples. Compound concentration versus percent inhibition curves are fitted to generate IC50 values. One skilled in the art will appreciate that the values generated either as percentage inhibition at a single concentration or IC50 values are subject to experimental variation.

[4] = target: T4, Human PI3K gamma (Homo sapiens, UniProt P48736); experiment: Human PI3K gamma enzyme assay (HTRF)
T4 construct: His (N); host or cells: SF9 insect cells (baculovirus)
Source text: as §1, §2, §3, §4, §5, §6

[5] = concentration not given, b1387 states 1.1 μM for PI3K α and β
[6] = concentration not given, b1387 states 1.1 μM for PI3K α and β, read-out: p110 beta Percent Inhibition
[7] = concentration not given, b1389 states 1.0 μM for PI3K δ and γ, read-out: p110 delta Percent Inhibition
[8] = concentration not given, b1389 states 1.0 μM for PI3K δ and γ
[9] = concentration not given, b1387 states 1.1 μM for PI3K α and β, read-out: p110 alpha Percent Inhibition
[10] = concentration not given, b1389 states 1.0 μM for PI3K δ and γ, read-out: p110 gamma Percent Inhibition

T3 sequence (O00329 whole entry): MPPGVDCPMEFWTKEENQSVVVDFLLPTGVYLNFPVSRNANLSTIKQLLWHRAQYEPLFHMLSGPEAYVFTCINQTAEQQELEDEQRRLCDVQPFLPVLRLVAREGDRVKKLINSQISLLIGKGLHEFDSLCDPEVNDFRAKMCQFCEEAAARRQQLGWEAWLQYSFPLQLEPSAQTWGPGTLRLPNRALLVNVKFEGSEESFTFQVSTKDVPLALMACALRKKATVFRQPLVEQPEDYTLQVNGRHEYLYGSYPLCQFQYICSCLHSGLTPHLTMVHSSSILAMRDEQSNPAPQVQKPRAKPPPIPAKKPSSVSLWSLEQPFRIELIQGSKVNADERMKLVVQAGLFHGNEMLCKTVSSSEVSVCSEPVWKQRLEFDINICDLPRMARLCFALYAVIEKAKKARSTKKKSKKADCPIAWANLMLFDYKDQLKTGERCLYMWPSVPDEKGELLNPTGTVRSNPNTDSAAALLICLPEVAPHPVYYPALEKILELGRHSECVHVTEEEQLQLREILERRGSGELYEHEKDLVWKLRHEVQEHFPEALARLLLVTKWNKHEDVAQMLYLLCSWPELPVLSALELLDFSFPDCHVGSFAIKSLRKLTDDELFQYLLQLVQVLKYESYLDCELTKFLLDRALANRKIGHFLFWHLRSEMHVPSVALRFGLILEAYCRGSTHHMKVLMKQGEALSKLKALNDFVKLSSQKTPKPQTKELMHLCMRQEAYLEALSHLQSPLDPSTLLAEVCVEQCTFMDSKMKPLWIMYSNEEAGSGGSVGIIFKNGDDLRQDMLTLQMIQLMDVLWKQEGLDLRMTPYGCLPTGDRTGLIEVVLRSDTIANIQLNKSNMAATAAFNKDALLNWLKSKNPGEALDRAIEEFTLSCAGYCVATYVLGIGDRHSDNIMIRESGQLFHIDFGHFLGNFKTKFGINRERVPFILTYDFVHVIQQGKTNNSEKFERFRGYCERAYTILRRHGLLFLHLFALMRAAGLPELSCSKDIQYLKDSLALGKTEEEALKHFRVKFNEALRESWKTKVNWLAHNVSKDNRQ
T3 sequence (P27986 whole entry partner): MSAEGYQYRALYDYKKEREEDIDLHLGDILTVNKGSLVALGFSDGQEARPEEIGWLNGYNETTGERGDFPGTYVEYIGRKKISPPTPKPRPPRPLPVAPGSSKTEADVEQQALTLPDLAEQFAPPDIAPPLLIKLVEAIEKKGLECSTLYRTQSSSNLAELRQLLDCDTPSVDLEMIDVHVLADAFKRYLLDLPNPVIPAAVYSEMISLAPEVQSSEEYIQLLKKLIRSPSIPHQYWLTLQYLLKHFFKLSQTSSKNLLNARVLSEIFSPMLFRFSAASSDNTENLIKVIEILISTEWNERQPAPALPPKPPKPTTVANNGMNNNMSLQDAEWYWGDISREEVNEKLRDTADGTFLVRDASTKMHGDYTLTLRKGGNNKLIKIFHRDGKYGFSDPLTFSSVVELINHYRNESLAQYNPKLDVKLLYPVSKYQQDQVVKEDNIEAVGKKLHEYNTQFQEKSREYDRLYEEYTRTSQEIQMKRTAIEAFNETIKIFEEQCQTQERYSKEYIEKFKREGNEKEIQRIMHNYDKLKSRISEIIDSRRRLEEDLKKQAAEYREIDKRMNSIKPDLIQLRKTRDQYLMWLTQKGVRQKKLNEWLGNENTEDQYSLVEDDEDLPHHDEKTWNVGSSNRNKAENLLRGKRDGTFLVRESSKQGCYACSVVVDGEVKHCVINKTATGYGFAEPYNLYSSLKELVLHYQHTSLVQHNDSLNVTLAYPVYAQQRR
T4 sequence (P48736 whole entry): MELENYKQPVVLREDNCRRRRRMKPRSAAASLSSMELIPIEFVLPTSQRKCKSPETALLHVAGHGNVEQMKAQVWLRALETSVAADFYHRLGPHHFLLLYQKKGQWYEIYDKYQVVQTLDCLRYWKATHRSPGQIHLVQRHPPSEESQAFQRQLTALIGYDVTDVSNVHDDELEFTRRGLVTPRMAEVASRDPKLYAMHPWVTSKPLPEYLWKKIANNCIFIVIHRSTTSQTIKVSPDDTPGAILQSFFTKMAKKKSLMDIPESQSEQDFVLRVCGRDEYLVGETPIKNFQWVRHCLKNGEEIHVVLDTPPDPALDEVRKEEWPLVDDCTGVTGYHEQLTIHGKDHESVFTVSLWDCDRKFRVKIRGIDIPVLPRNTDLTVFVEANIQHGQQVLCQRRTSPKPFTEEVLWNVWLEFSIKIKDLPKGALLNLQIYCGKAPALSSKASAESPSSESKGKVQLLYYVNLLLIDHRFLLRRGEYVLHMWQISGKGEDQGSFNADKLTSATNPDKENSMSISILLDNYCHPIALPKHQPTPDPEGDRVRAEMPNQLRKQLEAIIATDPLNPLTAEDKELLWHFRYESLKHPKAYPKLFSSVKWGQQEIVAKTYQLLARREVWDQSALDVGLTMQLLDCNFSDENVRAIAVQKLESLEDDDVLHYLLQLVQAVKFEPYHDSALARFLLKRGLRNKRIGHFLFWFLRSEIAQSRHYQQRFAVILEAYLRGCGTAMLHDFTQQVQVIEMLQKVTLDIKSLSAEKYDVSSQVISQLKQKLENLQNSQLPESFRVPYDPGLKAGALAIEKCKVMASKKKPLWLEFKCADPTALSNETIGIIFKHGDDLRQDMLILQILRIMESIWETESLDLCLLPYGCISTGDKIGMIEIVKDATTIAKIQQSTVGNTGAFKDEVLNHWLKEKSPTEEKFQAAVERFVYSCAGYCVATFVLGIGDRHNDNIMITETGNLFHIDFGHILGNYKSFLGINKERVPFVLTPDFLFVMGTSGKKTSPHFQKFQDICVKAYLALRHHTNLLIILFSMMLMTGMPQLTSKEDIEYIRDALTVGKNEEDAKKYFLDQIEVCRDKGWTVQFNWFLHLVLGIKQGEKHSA
T2 sequence (P42338 whole entry): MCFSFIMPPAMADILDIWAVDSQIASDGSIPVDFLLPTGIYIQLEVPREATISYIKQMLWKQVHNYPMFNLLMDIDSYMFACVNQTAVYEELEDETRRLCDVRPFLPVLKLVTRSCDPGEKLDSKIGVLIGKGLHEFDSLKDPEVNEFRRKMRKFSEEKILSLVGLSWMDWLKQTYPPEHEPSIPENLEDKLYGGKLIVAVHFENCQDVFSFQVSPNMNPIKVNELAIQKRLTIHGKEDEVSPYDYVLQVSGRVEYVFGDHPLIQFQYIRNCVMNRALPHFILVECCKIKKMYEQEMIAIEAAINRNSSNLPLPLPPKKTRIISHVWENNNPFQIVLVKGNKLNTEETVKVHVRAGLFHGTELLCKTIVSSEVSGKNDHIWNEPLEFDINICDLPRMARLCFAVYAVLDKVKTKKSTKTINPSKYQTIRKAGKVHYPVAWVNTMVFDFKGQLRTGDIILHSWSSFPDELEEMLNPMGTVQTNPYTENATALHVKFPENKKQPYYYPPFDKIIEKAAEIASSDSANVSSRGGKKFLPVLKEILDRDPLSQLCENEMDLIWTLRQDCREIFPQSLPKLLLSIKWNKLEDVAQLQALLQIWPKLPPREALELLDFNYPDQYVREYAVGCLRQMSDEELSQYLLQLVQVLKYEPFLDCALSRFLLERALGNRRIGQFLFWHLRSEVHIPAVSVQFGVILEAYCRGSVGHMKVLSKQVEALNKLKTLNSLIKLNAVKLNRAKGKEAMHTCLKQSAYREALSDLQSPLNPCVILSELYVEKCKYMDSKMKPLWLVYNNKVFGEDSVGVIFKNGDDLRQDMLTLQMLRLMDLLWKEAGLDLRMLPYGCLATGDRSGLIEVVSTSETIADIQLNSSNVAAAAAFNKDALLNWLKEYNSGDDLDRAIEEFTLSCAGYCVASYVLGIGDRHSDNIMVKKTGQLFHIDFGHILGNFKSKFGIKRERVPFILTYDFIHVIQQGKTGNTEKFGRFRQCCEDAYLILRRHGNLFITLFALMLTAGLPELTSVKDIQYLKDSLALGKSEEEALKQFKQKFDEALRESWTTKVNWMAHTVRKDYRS
T2 sequence (P27986 whole entry partner): as the sequence (P27986 whole entry partner) above
T1 sequence (P42336 whole entry): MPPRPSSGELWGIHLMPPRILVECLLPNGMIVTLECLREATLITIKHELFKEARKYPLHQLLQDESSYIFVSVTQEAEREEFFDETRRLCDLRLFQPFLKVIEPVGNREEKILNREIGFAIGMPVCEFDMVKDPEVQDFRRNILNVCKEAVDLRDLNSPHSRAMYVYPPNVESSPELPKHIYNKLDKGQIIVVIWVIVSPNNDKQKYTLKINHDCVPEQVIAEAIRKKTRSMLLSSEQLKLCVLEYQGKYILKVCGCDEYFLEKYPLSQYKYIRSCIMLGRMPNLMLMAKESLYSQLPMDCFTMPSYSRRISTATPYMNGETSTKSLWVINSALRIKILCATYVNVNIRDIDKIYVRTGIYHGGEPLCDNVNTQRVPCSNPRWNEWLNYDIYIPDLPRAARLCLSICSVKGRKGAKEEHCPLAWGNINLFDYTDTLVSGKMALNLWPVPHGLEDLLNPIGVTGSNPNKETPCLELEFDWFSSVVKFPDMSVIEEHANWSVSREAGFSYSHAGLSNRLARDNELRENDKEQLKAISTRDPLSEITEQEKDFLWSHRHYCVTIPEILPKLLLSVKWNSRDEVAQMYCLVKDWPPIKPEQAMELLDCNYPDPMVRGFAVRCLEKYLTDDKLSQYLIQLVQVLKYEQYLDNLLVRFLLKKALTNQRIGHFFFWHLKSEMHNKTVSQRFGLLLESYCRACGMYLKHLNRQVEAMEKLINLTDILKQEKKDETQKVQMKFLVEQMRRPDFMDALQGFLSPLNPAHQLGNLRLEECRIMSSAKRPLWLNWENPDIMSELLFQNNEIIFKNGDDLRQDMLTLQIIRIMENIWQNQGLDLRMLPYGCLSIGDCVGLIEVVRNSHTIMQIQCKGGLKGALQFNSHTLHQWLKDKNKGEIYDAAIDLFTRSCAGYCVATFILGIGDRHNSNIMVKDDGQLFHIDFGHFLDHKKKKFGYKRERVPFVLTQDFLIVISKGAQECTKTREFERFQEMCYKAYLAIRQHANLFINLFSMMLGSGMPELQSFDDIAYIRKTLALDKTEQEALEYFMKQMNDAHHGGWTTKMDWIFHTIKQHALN
T1 sequence (P27986 whole entry partner): as the sequence (P27986 whole entry partner) above

inhibition at 1.1 µM [2, 6] [%]	inhibition at 1 µM [3, 7] [%]	inhibition at 1.1 µM [1, 9] [%]	inhibition at 1 µM [4, 10] [%]	SMILES	other results
100	101	–	–	CC(=O)Nc1cc(-c2cc(C(c3ccc(Cl)cc3)N3CCC[C@H]3CO)c(-c3nnc[nH]3)s2)ccn1 (single isomer, unassigned) [Compound 259]	p110 alpha Percent Inhibition [1, 5]: 69%; p110 gamma Percent Inhibition [4, 8]: 25%
113	105	79	33	CC(=O)Nc1cc(-c2cc([C@H](c3ccc(Cl)cc3)N(C)C)c(-c3nnc[nH]3)s2)ccn1 (single isomer, unassigned) [Compound 261]	–
–	–	–	–	CC(=O)Nc1cc(-c2cc(C(c3ccc(Cl)cc3)N3CCC[C@@H]3CO)c(-c3nnc[nH]3)s2)ccn1 (single isomer, unassigned) [Compound 283]	p110 alpha Percent Inhibition [1, 5]: 96%; p110 beta Percent Inhibition [2, 5]: 98%; p110 delta Percent Inhibition [3, 8]: 99%; p110 gamma Percent Inhibition [4, 8]: 18%
–	–	–	–	O=C(O)c1sc(N2CCOCC2)nc1Cc1ccc(Cl)cc1 [Compound 91, 4-(4-chlorobenzyl)-2-morpholinothiazole-5-carboxylic acid]	inhibition at 1.1 µM ([1]; at a 1.1 μM concentration, read-out: PI3Kα Percent Inhibition): 27%; IC50 ([1]; read-out: PI3Kalpha IC50): > 1 µM; inhibition at 1.1 µM ([2]; at a 1.1 μM concentration, read-out: PI3β Percent Inhibition): 105%; IC50 ([2]; read-out: PI3 Kbeta IC50): < 0.1 µM; inhibition at 1 µM ([3]; at a 1.0 μM concentration, read-out: PI3Kδ Percent Inhibition): 84.8%; inhibition at 1 µM ([4]; at a 1.0 μM concentration, read-out: PI3Kγ Percent Inhibition): 15.4%
106	109	83	32	CC(=O)Nc1cc(-c2cc(C(NCC3CNC3)c3ccc(Cl)cc3)c(-c3nnc[nH]3)s2)ccn1 (stereo not drawn) [Compound 129]	–
73	62	21	22	COc1ccc(C(O)c2cc(-c3ccncc3)sc2-c2nnc[nH]2)cc1F (stereo not drawn) [Compound 130]	–
78	80	75	5	CC(=O)Nc1cc(-c2sc(-c3nnc[nH]3)c([S+]([O-])c3ccc(Cl)cc3)c2C#N)ccn1 (stereo not drawn) [Compound 131, N-{4-[4-[(4-chlorophenyl)sulfinyl]-3-cyano-5-(4H-1,2,4-triazol-3-yl)-2-thienyl]pyridin-2-yl}acetamide]	–
103	77	45	53	OC(c1cnc2ccccc2c1)c1cc(-c2ccncc2)sc1-c1nnc[nH]1 (stereo not drawn) [Compound 132]	–
101	74	84	26	OC(c1nc(-c2ccccc2)cs1)c1cc(-c2ccncc2)sc1-c1nnc[nH]1 (stereo not drawn) [Compound 133]	–
72	44	21	8	OC(c1ccc2c(c1)OC(F)(F)O2)c1cc(-c2ccncc2)sc1-c1nnc[nH]1 (stereo not drawn) [Compound 134]	–
87	99	78	8	CC(=O)Nc1cc(-c2cc(C(NCC(F)(F)F)c3ccc(Cl)cc3)c(-c3nnc[nH]3)s2)ccn1 (stereo not drawn) [Compound 135]	–
110	109	–	67	OC(c1cc2ccccc2cc1F)c1cc(-c2ccncc2)sc1-c1nnc[nH]1 (stereo not drawn) [Compound 136]	p110 alpha Percent Inhibition [1, 5]: 80%
54	30	12	12	Clc1cccc(Cc2nc(-c3ccncc3)sc2-c2nnc[nH]2)c1 [Compound 137]	–
86	69	43	13	Cc1c(F)cccc1C(O)c1cc(-c2ccncc2)sc1-c1nnc[nH]1 (stereo not drawn) [Compound 138]	–
100	105	77	24	CC(=O)Nc1cc(-c2cc(C(c3ccc(Cl)cc3)N3CCC(CN)C3)c(-c3nnc[nH]3)s2)ccn1 (stereo not drawn) [Compound 139]	–
47	74	76	62	CC(=O)Nc1cc(-c2sc(-c3nnc[nH]3)c(S(=O)(=O)c3ccc(Cl)cc3)c2C#N)ccn1 [Compound 140, N-{4-[4-[(4-chlorophenyl)sulfonyl]-3-cyano-5-(4H-1,2,4-triazol-3-yl)-2-thienyl]pyridin-2-yl}acetamide]	–
89	66	17	15	Cc1ccc(C(O)c2cc(-c3ccncc3)sc2-c2nnc[nH]2)c(C)c1 (stereo not drawn) [Compound 141]	–
67	47	15	7	OC(c1ccc(C(F)(F)F)cc1)c1cc(-c2ccncc2)sc1-c1nnc[nH]1 (stereo not drawn) [Compound 142]	–
115	85	58	62	N#Cc1c(-c2ccncc2)sc(C(=O)O)c1Cc1ccc2ccccc2c1 [Compound 143]	–
94	111	–	19	CC(=O)Nc1cc(-c2cc(C(c3ccc(Cl)cc3)N3CC(N(C)C)C3)c(-c3nnc[nH]3)s2)ccn1 (stereo not drawn) [Compound 144]	p110 alpha Percent Inhibition [1, 5]: 63%
98	97	64	9	CC(=O)Nc1cc(-c2cc(C(O)(CCCN(C)C)c3ccc(Cl)cc3)c(-c3nnc[nH]3)s2)ccn1 (stereo not drawn) [Compound 145]	–
103	110	67	23	O=C(Nc1cc(-c2cc(C(c3ccc(Cl)cc3)N3CCNCC3)c(-c3nnc[nH]3)s2)ccn1)C1CC1 (stereo not drawn) [Compound 146]	–
96	107	83	18	OC(c1ccc(Cl)cc1)c1cc(-c2ccnc(Nc3ncco3)c2)sc1-c1nnc[nH]1 (stereo not drawn) [Compound 147]	–
98	69	41	34	N#Cc1c(-c2ccncc2)sc(-c2nnc[nH]2)c1Cc1ccc2ccccc2c1 [Compound 148]	–
–	–	–	–	COc1cc(C(O)c2cc(-c3ccnc(Cl)c3)sc2-c2nnc[nH]2)c(F)cc1Cl (stereo not drawn) [Compound 149]	p110 alpha Percent Inhibition [1, 5]: 54%; p110 beta Percent Inhibition [2, 5]: 109%; p110 delta Percent Inhibition [3, 8]: 117%; p110 gamma Percent Inhibition [4, 8]: 75%
